US8399682B2, “Substituted (pyrazolylcarbonyl)imidazolidinones and their use” (AiCuris GmbH & Co. KG, priority 2008, dated 2013)
Where two headings read alike, the source gives them in different places.

Columns and labels:
[1] = system: HIV-1LAI; test: H9 assay with wild-type HIV-1 (HIV-1LAI supernatant infection, AlamarBlue); format: cell-based; details: Human immunodeficiency virus 1, H9 cells, 10% FCS
Method: For the mixture for a 96-well MTP, 3 million PBLs are pelleted, suspended in 1 ml of RPMI 1640 medium/10% FCS and incubated together with a suitable amount of HIV-1LAI (NIH AIDS Research & Reference Reagent Program, Germantown, USA) at 37° C. for 2 hours (pellet infection). Unadsorbed viruses are subsequently washed out with PBS, and the infected cells are pelleted again and suspended in 18 ml of RPMI 1640 medium/10% FCS/interleukin-2 (40 U/ml). 180 μl thereof are pipetted into each well of a white 96-well MTP with 20 μl of test substance in suitable dilution. Alternatively, after preparation of the substance dilutions in the MTP, the HIV is pipetted in together with the cells and is not washed out again (supernatant infection). In order to avoid edge effects, the wells at the edge of the MTP are not used for substance dilutions. The second vertical row of the MTP contains only infected cells (virus control) and the eleventh vertical row only uninfected cells (cell control), in each case in RPMI 1640 medium/10% FCS/interleukin-2 (40 U/ml). The other wells of the MTP contain the compounds of the invention in various concentrations starting from the third vertical row, from which the test substances are diluted in 3-fold steps up to the tenth vertical row 3^7-fold. The test substances are dissolved in DMSO, whereby the final DMSO concentration in the test mixture eventually is 1%. The test mixtures are incubated at 37° C./5% CO2. After 5 and 7 days, 50 μl of cell-free supernatant are removed from each well to determine the amount of p24 present by means of a p24 ELISA (HIV-1 p24^CA Antigen Capture Assay Kit, NCI-Frederick Cancer Research and Development Center, Frederick, USA). From the resulting values of the photometric evaluation (450/620 nm) the EC50 values of the test substances are determined as the concentration at which the amount of p24 is 50% of the untreated infected cells.
Alternatively, H9 cells (ATCC, Wesel, Germany) are employed instead of PBLs for testing the test substances. H9 cells are incubated in RPMI 1640 medium with 2% or 10% FCS as a HIV-1LAI supernatant infection at 37° C./5% CO2, (20 μl of substance dilution and 80 μl of cells/virus per well) in accordance with the pattern described above for 5 days. Subsequently, 10 μl of AlamarBlue (Invitrogen, Karlsruhe, Germany) are added to each well, and the MTPs are incubated at 37° C. for 3 hours before the fluorimetric evaluation takes place (544/590 nm). The resulting values are about 40 000 for the untreated uninfected cells and about 7000 for the untreated infected cells. In the low concentration range, the EC50 values of the test substances are determined as the concentration at which the fluorescence is 50% of the untreated uninfected cells (in each case subtracting the values of the untreated infected cells). In addition, in the high concentration range, the CC50 values of the test substances are determined as the concentration at which the fluorescence is 50% of the untreated uninfected cells (in each case subtracting the values of the untreated infected cells).

[2] = system: HIV-1NL4-3 K103N-Y181C; test: Light assay with inhibitor-resistant HI reporter virus in MT4 7F2 cells; format: cell-based; details: Human immunodeficiency virus 1, read-out: EC50 (nM) MT4 7F2 cells HIV-1NL4-3 K103N-Y181C 2% FCS
Method: (§1) For the mixture for a 96-well MTP, 3 million MT4 7F2 cells are pelleted, suspended in 1 ml of RPMI 1640 medium without phenol red (Invitrogen, Karlsruhe, Germany)/10% FCS/10% AIM-V (Invitrogen, Karlsruhe, Germany) and incubated together with a suitable amount of the corresponding HIV-1NL4-3 reporter virus at 37° C. for 2 hours (pellet infection). Unadsorbed viruses are subsequently washed out with PBS, and the infected cells are pelleted again and suspended in 8 ml of RPMI 1640 medium without phenol red/2% or 10% FCS/10% AIM-V. 80 μl thereof are pipetted into each well of a white 96-well MTP with 20 μl of test substance in suitable dilution. To avoid edge effects, the wells on the edge of the MTP are not used for substance dilutions. The second vertical row of the MTP contains only infected cells (virus control) and the eleventh vertical row only uninfected cells (cell control), in each case in RPMI 1640 medium without phenol red/2% or 10% FCS/10% AIM-V. The other wells of the MTP contain the compounds of the invention in various concentrations starting from the third vertical row, from which the test substances are diluted in 3-fold steps up to the tenth vertical row 3^7-fold. The test substances are dissolved in DMSO, whereby the final DMSO concentration in the test mixture eventually is 1%. The test mixtures are incubated at 37° C./5% CO2 for five days and, after the addition of 15 μl of Lu164 substrate (5 mg/ml coelenterazine dissolved in 30 μM glutathione/DMSO, 100 mM NaCl, 1M MES, 100 mM glutathione), evaluated by luminometry. The resulting values are in the region of 1 000 000 RLUs (relative light units) for the virus control and 300 to 400 RLUs for the cell control. The EC50 values of the test substances are determined as the concentration at which the virus replication measured in RLUs is 50% of the untreated infected cells.

[3] = target: T1, reverse transcriptase (Human immunodeficiency virus type 1 group M subtype B, UniProt P04585); test: Biochemical Reverse Transcriptase Assay (Reverse Transcriptase Assay, colorimetric, Roche)
T1 construct: negative control (mixture without reverse transcriptase); purchased Roche Diagnostics GmbH, Mannheim, Germany
Method: The “Reverse Transcriptase Assay, colorimetric” (Roche Diagnostics GmbH, Mannheim, Germany) is used in accordance with the manufacturer's information. The test substances are dissolved in DMSO and are used in the test diluted in 5-fold steps (final DMSO concentration 1%). The resulting values of the photometric evaluation (405/492 nm) are less than 0.1 for the negative control (mixture without reverse transcriptase) and are in the region of 1.5 for the positive control (mixture without test substance). The IC50 values of the test substances are determined as the concentration of the test substance dilution at which the measured optical density is 50% of the positive control.

[4] = system: HIV-1NL4-3 wt; test: Light assay with wild-type HI reporter virus in MT4 7F2 cells; format: cell-based; details: Human immunodeficiency virus 1, 2% FCS
Method: as §1

Row | Compound | EC50 [1] | EC50 [2] | IC50 ([3]; read-out: IC50 (nM) RT Assay) | EC50 [4] | IC50 [3]
1 | N#Cc1cc(F)cc(-c2cc(C(=O)N3CNC(=O)C3)nn2-c2ccc(F)c(C#N)c2)c1 [Example 63, 5-{5-(3-Cyano-5-fluorophenyl)-3-[(4-oxoimidazolidin-1-yl)carbonyl]-1H-pyrazol-1-yl}-2-fluorobenzenecarbonitrile] | 150 nM | 237 nM | 102 nM | 20 nM | –
2 | O=C1CN(C(=O)c2cc(-c3cc(F)cc(F)c3)n(-c3cccc(Cl)c3)n2)CN1 [Example 3, 1-{[1-(3-Chlorophenyl)-5-(3,5-difluorophenyl)-1H-pyrazol-3-yl]carbonyl}imidazolidin-4-one] | 0.2 nM | 7 nM | 37 nM | 0.03 nM | –
3 | O=C1CN(C(=O)c2cc(-c3cc(F)cc(OCCO)c3)n(-c3ccc(F)c(Cl)c3)n2)CN1 [Example 36] | 3 nM | 45 nM | – | 0.6 nM | 52 nM
4 | O=C1CN(C(=O)c2cc(-c3cccc(OCCCN4CCOCC4)c3)n(-c3cccc(Cl)c3)n2)CN1 [Example 37, 1-({1-(3-Chlorophenyl)-5-[3-(3-morpholin-1-ylpropoxy)phenyl]-1H-pyrazol-3-yl}carbonyl)imidazolidin-4-one] | 33 nM | 2000 nM | 175 nM | 18 nM | –
5 | Cc1cc(F)cc(-c2cc(C(=O)N3CNC(=O)C3)nn2-c2cccc(Cl)c2)c1 [Example 51, 1-{[1-(3-Chlorophenyl)-5-(3-fluoro-5-methylphenyl)-1H-pyrazol-3-yl]carbonyl}imidazolidin-4-one] | 1 nM | 15 nM | 60 nM | 0.4 nM | –
6 | O=C1CN(C(=O)c2cc(-c3cccc(Cl)c3)n(-c3cccc(Cl)c3)n2)CN1 [Example 4, 1-{[1,5-Bis(3-chlorophenyl)-1H-pyrazol-3-yl]carbonyl}imidazolidin-4-one] | 11 nM | 45 nM | 75 nM | 1 nM | –
